Reference: US9957269B2, “S-imino-S-oxo iminothiazine compounds as bace inhibitors, compositions, and their use” (Merck Sharp & Dohme Corp., priority 2014, dated 2018)
pKi: −log10 of the molar value. Each block holds one compound with its values, some of them ahead of it.

Legend:
[1] = biological target: T1, purified human autoBACE-2 (Homo sapiens, UniProt Q9Y5Z0); test: BACE-2 Assay (BACE-HTRF assay); format: biochemical; conditions: Ki calculated from IC50 using the Cheng-Prusoff equation; QSY7-EISEVNLDAEFC-Eu-amide substrate 200 nM, pH 5.0; read-out: BACE2 Ki
T1 sequence (Q9Y5Z0 63-473 limits assumed): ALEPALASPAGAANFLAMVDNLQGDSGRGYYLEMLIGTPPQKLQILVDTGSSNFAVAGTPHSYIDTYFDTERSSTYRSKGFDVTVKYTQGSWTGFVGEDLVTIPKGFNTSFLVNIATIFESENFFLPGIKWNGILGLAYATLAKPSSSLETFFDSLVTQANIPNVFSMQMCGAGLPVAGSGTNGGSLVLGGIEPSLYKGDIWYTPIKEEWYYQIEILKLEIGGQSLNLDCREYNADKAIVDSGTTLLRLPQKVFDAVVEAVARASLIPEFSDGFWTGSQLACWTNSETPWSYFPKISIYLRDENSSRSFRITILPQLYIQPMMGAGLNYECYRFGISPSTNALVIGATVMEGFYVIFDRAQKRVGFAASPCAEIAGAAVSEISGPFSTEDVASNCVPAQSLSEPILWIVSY
Procedure: Inhibitor IC50s at purified human autoBACE-2 are determined in a time-resolved endpoint proteolysis assay that measures hydrolysis of the QSY7-EISEVNLDAEFC-Eu-amide FRET peptide substrate (BACE-HTRF assay). BACE-mediated hydrolysis of this peptide results in an increase in relative fluorescence (RFU) at 620 nm after excitation with 320 nm light. Inhibitor compounds, prepared at 3× the desired final concentration in 1× BACE assay buffer (20 mM sodium acetate pH 5.0, 10% glycerol, 0.1% Brij-35) supplemented with 7.5% DMSO are pre-incubated with an equal volume of autoBACE-2 enzyme diluted in 1× BACE assay buffer (final enzyme concentration 1 nM) in black 384-well NUNC plates for 30 minutes at 30° C. […] DMSO is present at 5% final concentration in the assay. Following laser excitation of sample wells at 320 nm, the fluorescence signal at 620 nm is collected for 400 ms following a 50 μs delay on a RUBYstar HTRF plate reader (BMG Labtechnologies). Raw RFU data is normalized to maximum (1.0 nM BACE/DMSO) and minimum (no enzyme/DMSO) RFU values. IC50s are determined by nonlinear regression analysis (sigmoidal dose response, variable slope) of percent inhibition data with minimum and maximum values set to 0 and 100 percent respectively. Similar IC50s are obtained when using raw RFU data. The Ki values are calculated from the IC50 using the Cheng-Prusoff equation.

[2] = biological target: soluble human BACE1 catalytic domain (Homo sapiens, UniProt P56817); test: BACE1 HTRF FRET Assay; format: biochemical; conditions: Ki calculated from IC50 using the Cheng-Prusoff equation; QSY7-APPswe-Eu substrate 200 nM, pH 5.0
Description: Na^+-Acetate pH 5.0; 1% Brij-35; Glycerol; Dimethyl Sulfoxide (DMSO); Recombinant human soluble BACE1 catalytic domain (>95% pure); APP Swedish mutant peptide substrate (QSY7-APP^swe-Eu): QSY7-EISEVNLDAEFC-Europium-amide.
A homogeneous time-resolved FRET assay can be used to determine IC50 values for inhibitors of the soluble human BACE1 catalytic domain. This assay monitors the increase of 620 nm fluorescence that resulted from BACE1 cleavage of an APPswedish APP^swe mutant peptide FRET substrate (QSY7-EISEVNLDAEFC-Europium-amide). This substrate contains an N-terminal QSY7 moiety that serves as a quencher of the C-terminal Europium fluorophore (620 nm Em). In the absence of enzyme activity, 620 nm fluorescence is low in the assay and increased linearly over 3 hours in the presence of uninhibited BACE1 enzyme. Inhibition of BACE1 cleavage of the QSY7-APP^swe-Eu substrate by inhibitors is manifested as a suppression of 620 nm fluorescence.
Varying concentrations of inhibitors at 3× the final desired concentration in a volume of 10 ul are preincubated with purified human BACE1 catalytic domain (3 nM in 10 μl) for 30 minutes at 30° C. in reaction buffer containing 20 mM Na-Acetate pH 5.0, 10% glycerol, 0.1% Brij-35 and 7.5% DSMO. Reactions are initiated by addition of 10 μl of 600 nM QSY7-APP^swe-Eu substrate (200 nM final) to give a final reaction volume of 30 μl in a 384 well Nunc HTRF plate. The reactions are incubated at 30° C. for 1.5 hours. The 620 nm fluorescence is then read on a Rubystar HTRF plate reader (BMG Labtechnologies) using a 50 millisecond delay followed by a 400 millisecond acquisition time window. Inhibitor IC50 values are derived from non-linear regression analysis of concentration response curves. Ki values are then calculated from IC50 values using the Cheng-Prusoff equation using a previously determined […] of 8 μM for the QSY7-APP^swe-Eu substrate at BACE.

Chain of soluble human BACE1 catalytic domain (P56817 75-416 limits assumed): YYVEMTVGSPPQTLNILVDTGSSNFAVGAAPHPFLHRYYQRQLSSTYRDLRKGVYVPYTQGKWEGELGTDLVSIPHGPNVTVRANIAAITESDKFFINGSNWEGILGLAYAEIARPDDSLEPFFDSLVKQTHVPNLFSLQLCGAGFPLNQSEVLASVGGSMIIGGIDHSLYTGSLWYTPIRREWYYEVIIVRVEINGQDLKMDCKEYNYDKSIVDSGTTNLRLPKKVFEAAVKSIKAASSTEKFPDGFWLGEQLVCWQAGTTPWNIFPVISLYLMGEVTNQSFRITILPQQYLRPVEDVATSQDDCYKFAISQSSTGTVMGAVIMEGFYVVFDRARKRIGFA

- pKi [2]: 5.94
Compound: CN=[S@]1(=O)C[C@@](C)(c2cc(Nc3ccnc4nc(OC)cnc34)ccc2F)NC(=N)C1(C)C [Example 5, (1S,5R)-5-(2-fluoro-5-((3-methoxypyrido[2,3-b]pyrazin-8-yl)amino)phenyl)-3-imino-2,2,5-trimethyl-1-(methylimino)-1λ^6-thiomorpholine 1-oxide]

- pKi [1]: 8.22
- pKi [2]: 7.62
Compound: CN=[S@]1(=O)C[C@@](C)(c2cc(Nc3ncccc3OC)ccc2F)NC(=N)C1(C)C [Example 9, (1S,5R)-5-(2-fluoro-5-((3-methoxypyridin-2-yl)amino)phenyl)-3-imino-2,2,5-trimethyl-1-(methylimino)-1λ^6-thiomorpholine 1-oxide]

- pKi [1]: 9.00
- pKi [2]: 8.52
Compound: CN=[S@@]1(=O)C[C@@](C)(c2cc(Nc3ncnc4cc(Br)cnc34)ccc2F)NC(=N)C1(C)C [Example 8, (1R,5R)-5-(5-((7-bromopyrido[3,2-d]pyrimidin-4-yl)amino)-2-fluorophenyl)-3-imino-2,2,5-trimethyl-1-(methylimino)-1λ^6-thiomorpholine 1-oxide]

- pKi [2]: 8.00
Compound: CN=[S@]1(=O)C[C@@](C)(c2cc(Nc3ncnc4cc(Br)cnc34)ccc2F)NC(=N)C1(C)C [Example 7, (1S,5R)-5-(5-((7-bromopyrido[3,2-d]pyrimidin-4-yl)amino)-2-fluorophenyl)-3-imino-2,2,5-trimethyl-1-(methylimino)-1λ^6-thiomorpholine 1-oxide]

Further lines, the compound ahead of its results:

Compound: CN=[S@]1(=O)C[C@@](C)(c2cc(Nc3nccc4cc(Br)cnc34)ccc2F)NC(=N)C1(C)C [Example 6, (1S,5R)-5-(5-((3-bromo-1,7-naphthyridin-8-yl)amino)-2-fluorophenyl)-3-imino-2,2,5-trimethyl-1-(methylimino)-1λ^6-thiomorpholine 1-oxide]
- pKi [1]: 8.70
- pKi [2]: 8.40

Compound: CN=[S@@]1(=O)C[C@@](C)(c2cc(Nc3nccc4nc(OC)cnc34)ccc2F)NC(=N)C1(C)C [Example 1, (1R,5R)-5-(2-fluoro-5-((2-methoxypyrido[3,4-b]pyrazin-5-yl)amino)phenyl)-3-imino-2,2,5-trimethyl-1-(methylimino)-1λ^6-thiomorpholine 1-oxide]
- pKi [1]: 7.80
- pKi [2]: 7.85

Compound: CN=[S@]1(=O)C[C@@](C)(c2cc(Nc3nccc4cc(OC)cnc34)ccc2F)NC(=N)C1(C)C [Example 4, (1S,5R)-5-(2-fluoro-5-((3-methoxy-1,7-naphthyridin-8-yl)amino)phenyl)-3-imino-2,2,5-trimethyl-1-(methylimino)-1λ^6-thiomorpholine 1-oxide]
- pKi [1]: 7.60
- pKi [2]: 7.55

Compound: CN=[S@@]1(=O)C[C@@](C)(c2cc(Nc3ccnc4cc(OC)cnc34)ccc2F)NC(=N)C1(C)C [Example 2, (1R,5R)-5-(2-fluoro-5-((7-methoxy-1,5-naphthyridin-4-yl)amino)phenyl)-3-imino-2,2,5-trimethyl-1-(methylimino)-1λ^6-thiomorpholine 1-oxide]
- pKi [1]: 7.12
- pKi [2]: 7.01
